This note sets out measurements from patent US11801255B2, “Lipid disulfide prodrugs and uses related thereto” (priority 2017, dated 2023).

The structures appear in SMILES notation. Read-outs that look alike come from different tables or passages of the source. A value given as a limit tells only on which side of the number the result lay.

Data set [1] in a line: Stability in human plasma/serum by LC-MS. In kind it is in vitro ADME.
Experimental: Aliquots of each sample were analyzed by LC-MS at varying times points over the course of 2 hours with a final time point at 24 to assess decomposition.
For another data set, the system named is HBV. Kind of data set: Antiviral activity against HBV in HepG2.2.15 cells, viral DNA by qPCR after 6 days. The following applies: for EC50: Hepatitis B virus; for HBV TI (CC50/EC50): HepG2. How it is done:
(§1) Compounds synthesized were evaluated against HIV-infected PBMCs and antiviral activity was assessed by measuring reverse transcriptase in cell supernatants. Compounds 11a-e, 12a-e, and 13 were assayed against HBV and qPCR was used to quantify viral DNA following incubation in HepG2.2.15 cells after 6 days.
(Quantitative PCR measures a nucleic acid by following its amplification.)

Data set [2] can be described thus: Cytotoxicity: viability of uninfected HepG2 cells. In kind it is cell-based. As to conditions: human, uninfected HepG2 cells; Table 1; uninfected cells; read-out: HBV CC50 (HepG2).
Another data set relates to HepG2. The data set can be described thus: Cytotoxicity: viability of uninfected HepG2 cells. In kind it is cell-based. As to conditions: Table 3; read-out: HBV CC50 (HepG2).
Data set [3] in a line: Stability in PBS (pH 7.4), carbonate/bicarbonate buffer (pH 9) and DMEM by LC-MS. As to conditions: PBS buffer.
Experimental: Compound 11c and 11d were selected as model compounds and subjected to various media including human serum, PBS buffer (pH 7.4), Dulbecco's Modified Eagle Medium (DMEM), and carbonate/bicarbonate buffer (pH 9). Aliquots of each sample were analyzed by LC-MS at varying times points over the course of 2 hours with a final time point at 24 to assess decomposition.
Experiments were performed to see how compounds how compounds 11c and 11d would fare in the presence of base (pH 9), PBS (pH 7.4), and upon exposure to nucleophilic media (DMEM). […] To this end, the stability of hexadecyloxypropyl 2′-deoxy-2′-fluorouridine, a non-labile alkoxyalkyl lipid conjugate of 2′-deoxy-2′-fluorouridine in PBS buffer using Pyrex, Kimax, and silanized glassware was assessed. […] This prompted re-assessment of the PBS stability of the disulfide lipid conjugates in Kimax glassware. Note that all stability experiments were performed in Kimax glassware using hexadecyloxypropyl 2′-deoxy-2′-fluorouridine as an internal standard.
A short description of a further data set: in vitro. Format: cell-based, human. As to conditions: human, uninfected PBMCs; Table 1; viability of uninfected cells reduced by 50%; read-out: HIV-1 CC50 (PBMCs).
The subject of a further data set is HIV-1. The data set can be described thus: microbe, parasite or virus in culture. The following applies: for EC50: Human immunodeficiency virus 1, PBMC; for HIV-1 TI (CC50/EC50): PBMCs. How it is done:
as §1

In general, half-life refers to the time in which the quantity being followed falls by half. Broadly, the CC50 is the concentration that lowers cell viability or growth by half. Consider `CCCCCCCCCCCCCCCCSSCCOP(=O)(O)COC(C)Cn1cnc2c(N)ncnc21` (stereo not drawn) [Compound 11d, 2-(hexadecyldisulfanyl)ethyl hydrogen (((1-(6-amino-9H-purin-9-yl)propan-2-yl)oxy)methyl)phosphonate], for which the half-life in data set [1] (human serum, Kimax glassware, read-out: stability (half-life) in human serum) is over 24 h; in data set [1] (human, human plasma, read-out: half-life in human plasma), over 24 h; in data set [3] (carbonate/bicarbonate buffer and DMEM, pH 9) it was at most 2 h; in data set [3] (pH 7.4), under 0.333 h. Further, the EC50 in the data set with HBV (HepG2, read-out: HBV EC50 (HepG2)) was 20 nM; in the data set with HBV (HepG2, read-out: HBV potency) it was 20 nM; in the data set with HIV-1 (read-out: HIV-1 EC50 (PBMCs)) it was 0.65 nM; with HIV-1 (read-out: HIV-1 activity (EC50)), about 0.5 nM. Also, the figures for the “HBV TI (CC50/EC50)” value with HBV (Table 1) and in the data set on HBV (Table 3) were over 1250 and over 1200, respectively. Moreover, the CC50 was over 25000 nM in data set [2], over 25000 nM with HepG2 and 14300 nM in “in vitro”. The “HIV-1 TI (CC50/EC50)” value with HIV-1 (Table 1) and in the data set on HIV-1 (Table 3) was 22,000 in each case.
